Measurements as given in ChEMBL document CHEMBL2069292, “Dammarane glycosides from the root of Machilus yaoshansis” (J Nat Prod, 2012).
Calls of active or inactive are those of the source.

What was measured:
[1] = biological target: T1, Tyrosine-protein phosphatase non-receptor type 1 (Homo sapiens) (UniProt P18031); assay: Inhibition of human PTP1B at 10 uM
T1 sequence (whole entry): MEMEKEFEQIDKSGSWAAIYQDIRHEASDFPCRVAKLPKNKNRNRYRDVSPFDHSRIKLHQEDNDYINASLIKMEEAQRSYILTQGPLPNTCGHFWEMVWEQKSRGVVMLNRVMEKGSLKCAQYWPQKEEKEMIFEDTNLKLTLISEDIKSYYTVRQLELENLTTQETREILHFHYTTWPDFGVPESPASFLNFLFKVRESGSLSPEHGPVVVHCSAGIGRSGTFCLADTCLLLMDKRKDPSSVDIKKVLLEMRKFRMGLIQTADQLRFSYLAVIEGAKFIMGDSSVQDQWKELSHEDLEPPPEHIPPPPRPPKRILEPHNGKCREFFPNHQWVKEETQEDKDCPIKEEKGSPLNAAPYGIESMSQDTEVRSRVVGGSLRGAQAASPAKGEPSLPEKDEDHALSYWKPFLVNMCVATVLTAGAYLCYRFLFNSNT

A2780 = assay: Cytotoxicity against human A2780 cells at 10 uM after 96 hrs by MTT assay; assay type: functional, cell-based
HCT-8 = assay: Cytotoxicity against human HCT8 cells at 10 uM after 96 hrs by MTT assay; assay type: functional, cell-based
Bel-7402 = assay: Cytotoxicity against human Bel7402 cells at 10 uM after 96 hrs by MTT assay; assay type: functional, cell-based
BGC-823 = assay: Cytotoxicity against human BGC823 cells at 10 uM after 96 hrs by MTT assay; assay type: functional, cell-based
A549 = assay: Cytotoxicity against human A549 cells at 10 uM after 96 hrs by MTT assay; assay type: functional, cell-based
[2] = system: Peritoneal macrophage cell; assay: Inhibition of LPS-induced TNFalpha secretion in C57BL/6J mouse peritoneal macrophages at 10 uM after 24 hrs; assay type: functional, cell-based

CC(C)=CCC[C@@](O)(CO)[C@H]1CC[C@]2(C)[C@@H]1CC[C@@H]1[C@@]3(C)CC[C@H](O[C@@H]4OC[C@H](O)[C@H](O[C@@H]5OC[C@@H](O)[C@H](O)[C@H]5O)[C@H]4O[C@@H]4O[C@@H](C)[C@H](O)[C@@H](O)[C@H]4O)C(C)(C)[C@@H]3CC[C@]12C
inactive: inhibition [1] | Activity (A2780) | Activity (HCT-8) | Activity (Bel-7402) | Activity (BGC-823) | Activity (A549) | inhibition [2]

CC(C)=CCC[C@@](O)(CO[C@@H]1O[C@H](CO)[C@@H](O)[C@H](O)[C@H]1O)[C@H]1CC[C@]2(C)[C@@H]1CC[C@@H]1[C@@]3(C)CC[C@H](O[C@@H]4OC[C@H](O)[C@H](O[C@@H]5OC[C@@H](O)[C@H](O)[C@H]5O)[C@H]4O[C@@H]4O[C@@H](C)[C@H](O)[C@@H](O)[C@H]4O)C(C)(C)[C@@H]3CC[C@]12C
inactive: inhibition [1] | Activity (A2780) | Activity (HCT-8) | Activity (Bel-7402) | Activity (BGC-823) | Activity (A549) | inhibition [2]

CC(C)=CCC[C@@](O)(CO[C@@H]1O[C@H](CO)[C@@H](O)[C@H](O)[C@H]1O)[C@H]1CC[C@]2(C)[C@@H]1CC[C@@H]1[C@@]3(C=O)CC[C@H](O[C@@H]4O[C@H](CO)[C@@H](O)[C@H](O[C@@H]5OC[C@@H](O)[C@H](O)[C@H]5O)[C@H]4O[C@@H]4O[C@@H](C)[C@H](O)[C@@H](O)[C@H]4O)C(C)(C)[C@@H]3CC[C@]12C
inactive: inhibition [1] | Activity (A2780) | Activity (HCT-8) | Activity (Bel-7402) | Activity (BGC-823) | Activity (A549) | inhibition [2]

CC(C)=C[C@@H]1C[C@](O)([C@H]2CC[C@]3(C)[C@@H]2CC[C@@H]2[C@@]4(C)CC[C@H](O[C@@H]5O[C@H](CO)[C@@H](O)[C@H](O[C@@H]6OC[C@@H](O)[C@H](O)[C@H]6O)[C@H]5O)C(C)(C)[C@@H]4CC[C@]23C)C(=O)O1
inactive: inhibition [1] | Activity (A2780) | Activity (HCT-8) | Activity (Bel-7402) | Activity (BGC-823) | Activity (A549) | inhibition [2]

CC(C)=C[C@@H]1C[C@](O)([C@H]2CC[C@]3(C)[C@@H]2CC[C@@H]2[C@@]4(C)CC[C@H](O[C@@H]5OC[C@H](O)[C@H](O[C@@H]6OC[C@@H](O)[C@H](O)[C@H]6O)[C@H]5O[C@@H]5O[C@@H](C)[C@H](O)[C@@H](O)[C@H]5O)C(C)(C)[C@@H]4CC[C@]23C)C(=O)O1
inactive: inhibition [1] | Activity (A2780) | Activity (HCT-8) | Activity (Bel-7402) | Activity (BGC-823) | Activity (A549) | inhibition [2]

CC(C)=C[C@H]1C[C@](O)([C@H]2CC[C@]3(C)[C@@H]2CC[C@@H]2[C@@]4(C)CC[C@H](O[C@@H]5OC[C@H](O)[C@H](O[C@@H]6OC[C@@H](O)[C@H](O)[C@H]6O)[C@H]5O[C@@H]5O[C@@H](C)[C@H](O)[C@@H](O)[C@H]5O)C(C)(C)[C@@H]4CC[C@]23C)C(=O)O1
inactive: inhibition [1] | Activity (A2780) | Activity (HCT-8) | Activity (Bel-7402) | Activity (BGC-823) | Activity (A549) | inhibition [2]

CC(C)=CCC[C@@](O)(CO)[C@H]1CC[C@]2(C)[C@@H]1CC[C@@H]1[C@@]3(C=O)CC[C@H](O[C@@H]4OC[C@H](O)[C@H](O[C@@H]5OC[C@@H](O)[C@H](O)[C@H]5O)[C@H]4O)C(C)(C)[C@@H]3CC[C@]12C
inactive: inhibition [1] | Activity (A2780) | Activity (HCT-8) | Activity (Bel-7402) | Activity (BGC-823) | Activity (A549) | inhibition [2]

CC(=O)OC[C@H]1O[C@@H](O[C@H]2CC[C@]3(C)[C@H]4CC[C@@H]5[C@@H]([C@](O)(CO)CCC=C(C)C)CC[C@@]5(C)[C@]4(C)CC[C@H]3C2(C)C)[C@H](O[C@@H]2O[C@@H](C)[C@H](O)[C@@H](O)[C@H]2O)[C@@H](O[C@@H]2OC[C@@H](O)[C@H](O)[C@H]2O)[C@@H]1O
inactive: inhibition [1] | Activity (A2780) | Activity (HCT-8) | Activity (Bel-7402) | Activity (BGC-823) | Activity (A549) | inhibition [2]

CC(C)=CCC[C@@](O)(CO[C@@H]1O[C@H](CO[C@@H]2O[C@H](CO)[C@@H](O)[C@H](O)[C@H]2O)[C@@H](O)[C@H](O)[C@H]1O)[C@H]1CC[C@]2(C)[C@@H]1CC[C@@H]1[C@@]3(C)CC[C@H](O[C@@H]4O[C@H](CO)[C@@H](O)[C@H](O[C@@H]5OC[C@@H](O)[C@H](O)[C@H]5O)[C@H]4O[C@@H]4O[C@@H](C)[C@H](O)[C@@H](O)[C@H]4O)C(C)(C)[C@@H]3CC[C@]12C
inactive: inhibition [1] | Activity (A2780) | Activity (HCT-8) | Activity (Bel-7402) | Activity (BGC-823) | Activity (A549) | inhibition [2]
